In the assay the test system is C666-1 cells. Nature of the assay: C666-1 cell viability single concentration (50 μM) inhibition rate (Resazurin). The class given is cell-based. The settings on record: Homo sapiens, C6661, 72 h, read-out: C666-1 cell viability single concentration (50 μM) inhibition rate, Ratio* (Inh %). The gist of the method:
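Resazurin fluorescence (560/590 nm, 3 h development) gave the proliferation inhibition rate, normalised to DMSO-treated and cell-free blank wells. Compound was tested at a single 50 μmol/L final concentration on C666-1 cells for 72 h at 37° C, with duplicate wells, after 24 h seeding.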
In general terms: The colour change of resazurin is a common sign of viable cells or microbes.

The mark [1] stands for this setting: 50 μM compound, 72 hours, C666-1 cells.

SMILES strings stand for the structures. Read-outs that look alike come from different tables or passages of the source. A value given as a limit tells only on which side of the number the result lay.

Regarding `COC(=O)c1cccc(N2CC(OC(=S)Nc3ccc(OC)cc3)C2)c1-n1cccc1` [Example 158, Methyl 3-(3-(((4-methoxyphenyl)thiocarbamoyl)oxy)azetidin-1-yl)-2-(1H-pyrrol-1-yl)benzoate], the inhibition at 50 µM under setting [1] was above 50%.

`O=C(O)c1cccc(N2CC(OC(=S)Nc3ccc(Cl)cc3Cl)C2)c1-n1cccc1` [Example 163, 3-(3-(((2,4-dichlorophenyl)thiocarbamoyl)oxy)azetidin-1-yl)-2-(1H-pyrrol-1-yl)benzoic acid]: the inhibition at 50 µM under setting [1] was below 10%.

Regarding `COC(=O)c1cccc(N2CC(OCC(=O)Nc3ccccc3)C2)c1-n1cccc1` [Example 144, Methyl 3-(3-(2-oxo-2-(phenylamino)ethoxy)azetidin-1-yl)-2-(1H-pyrrol-1-yl)benzoate], the inhibition at 50 µM under setting [1] was 10 to 30%.

Regarding `O=C(O)c1cccc(N2CC(OC(=S)Nc3ccc(Br)cc3)C2)c1-n1cccc1` [Example 157, 3-(3-(((4-bromophenyl)thiocarbamoyl)oxy)azetidin-1-yl)-2-(1H-pyrrol-1-yl)benzoic acid], under setting [1], the inhibition at 50 µM is below 10%.

In the case of `COC(=O)c1cccc(N2CC(Oc3ccc(NC(=O)Nc4ccc(Cl)cc4)cc3)C2)c1-n1cccc1` [Example 128, Methyl 3-(3-(4-(3-(4-chlorophenyl)ureido)phenoxy)azetidin-1-yl)-2-(1H-pyrrol-1-yl)benzoate], under setting [1], the inhibition at 50 µM is below 10%.

Take `COC(=O)c1cccc(N2CC(Oc3ccc(OC(F)(F)F)cc3)C2)c1-n1cccc1` [Compound 83, Methyl 2-(1H-pyrrol-1-yl)-3-(3-(4-(trifluoromethoxy)phenoxy)azetidin-1-yl)benzoate]: the inhibition at 50 µM under setting [1] was above 50%.

For `CCCOc1ccc(OC2CN(c3cccc(C(=O)O)c3-n3cccc3)C2)cc1` [Example 106, 3-(3-(4-propoxyphenoxy)azetidin-1-yl)-2-(1H-pyrrol-1-yl)benzoic acid], under setting [1], the inhibition at 50 µM was below 10%.

Regarding `COC(=O)c1cccc(C#CN(Cc2cccnc2)S(=O)(=O)c2ccc(C)cc2)c1-n1cccc1` [Example 387], under setting [1], the inhibition at 50 µM was above 50%.

Consider `O=C(O)c1cccc(N2CC(Oc3ccc(Oc4ccc(F)cc4)cc3)C2)c1-n1cccc1` [Example 203, 3-(3-(4-(4-fluorophenoxy)phenoxy)azetidin-1-yl)-2-(1H-pyrrol-1-yl)benzoic acid], for which the inhibition at 50 µM under setting [1] is 10 to 30%.

For `COC(=O)c1cccc(N2CC(Oc3ccc(NC(=S)Nc4cccc(C#N)c4)cc3)C2)c1-n1cccc1` [Example 228, Methyl 3-(3-(4-(3-(3-cyanophenyl)thioureido)phenoxy)azetidin-1-yl)-2-(1H-pyrrol-1-yl)benzoate], under setting [1], the inhibition at 50 µM was above 50%.

Regarding `COC(=O)c1cccc(N2CC(Oc3ccc(OC(C)C)cc3)C2)c1-n1cccc1` [Example 109, Methyl 3-(3-(4-isopropoxyphenoxy)azetidin-1-yl)-2-(1H-pyrrol-1-yl)benzoate], the inhibition at 50 µM under setting [1] is below 10%.

In the case of `COC(=O)c1cccc(N2CC(Oc3ccc(COCCO)cc3)C2)c1-n1cccc1` [Example 372], under setting [1], the inhibition at 50 µM fell in the range of 10 to 30%.

`COC(=O)c1cccc(N2CC(NC(=O)c3ccccc3[N+](=O)[O-])C2)c1-n1cccc1` [Example 180, Methyl 3-(3-(2-nitrobenzamido)azetidin-1-yl)-2-(1H-pyrrol-1-yl)benzoate]: the inhibition at 50 µM under setting [1] lay within 30 to 50%.

Turning to `O=C(O)c1cccc(C#CN(Cc2ccccc2)S(=O)(=O)c2ccc3occc3c2)c1-n1cccc1` [Example 331, Lithium 3-((N-benzylbenzofuran-5-sulfonamido)ethynyl)-2-(1H-pyrrol-1-yl)benzoate], the inhibition at 50 µM was below 10%.

In the case of `O=C(Nc1ccc(OC(F)(F)F)cc1)Nc1cccc(OC2CN(c3cccc(C(=O)O)c3-n3cccc3)C2)c1` [Example 296, 3-(3-(3-(3-(4-(trifluoromethoxy)phenyl)ureido)phenoxy)azetidin-1-yl)-2-(1H-pyrrol-1-yl)benzoic acid], the inhibition at 50 µM under setting [1] was below 10%.

The values are drawn from US20230157996A1, “SMALL-MOLECULE INHIBITOR TARGETING EB VIRUS NUCLEAR ANTIGEN PROTEIN, PREPARATION METHOD AND USE THEREOF” (priority 2020, published 2023).
